pIC50: −log10 of the molar value. The source made the active and inactive calls. The calls are words filed in the database; no cut-off is given here.
Tests used:
[1] = molecular target: T1, Polyunsaturated fatty acid 5-lipoxygenase (Homo sapiens) (UniProt P09917); experiment: Inhibition of human 5-LO transfected in HEK293 cells coexpressing FLAP assessed as reduction in leukotriene formation at 1 uM using arachidonic acid as substrate preincubated for 5 mins followed by calcium ionophore A23187/arachidonic acid addition and measured after 15 mins by RP-HPLC analysis; type: cell-based
T1 sequence (whole entry): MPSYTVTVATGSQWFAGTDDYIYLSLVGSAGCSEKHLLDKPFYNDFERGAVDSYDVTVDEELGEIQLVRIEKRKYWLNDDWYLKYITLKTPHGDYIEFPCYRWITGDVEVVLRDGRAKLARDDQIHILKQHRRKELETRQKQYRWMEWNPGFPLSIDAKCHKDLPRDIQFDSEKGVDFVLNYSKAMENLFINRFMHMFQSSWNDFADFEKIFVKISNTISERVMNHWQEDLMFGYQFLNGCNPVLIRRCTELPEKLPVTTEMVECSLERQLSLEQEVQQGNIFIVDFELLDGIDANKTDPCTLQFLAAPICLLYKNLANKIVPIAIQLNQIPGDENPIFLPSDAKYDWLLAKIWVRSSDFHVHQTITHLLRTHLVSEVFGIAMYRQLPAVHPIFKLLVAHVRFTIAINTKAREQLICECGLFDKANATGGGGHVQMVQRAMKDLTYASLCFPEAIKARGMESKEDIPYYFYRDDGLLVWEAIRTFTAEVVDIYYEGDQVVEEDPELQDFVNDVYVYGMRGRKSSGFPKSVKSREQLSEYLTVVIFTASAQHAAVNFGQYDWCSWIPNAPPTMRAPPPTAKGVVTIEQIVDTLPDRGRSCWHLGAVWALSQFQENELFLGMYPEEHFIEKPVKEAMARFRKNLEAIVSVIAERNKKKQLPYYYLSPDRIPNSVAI

[2] = molecular target: T1, Polyunsaturated fatty acid 5-lipoxygenase (Homo sapiens); experiment: Inhibition of 5-LO in human PMNL cells assessed as reduction in leukotriene formation at 1 uM preincubated for 5 mins followed by thapsigargin stimulation measured after 15 mins by RP-HPLC analysis relative to control; type: cell-based
[3] = molecular target: T2, Polyunsaturated fatty acid 5-lipoxygenase (Homo sapiens, UniProt P09917); experiment: Inhibition of 5-LO in human PMNL cells assessed as reduction in leukotriene formation preincubated for 5 mins followed by thapsigargin stimulation measured after 15 mins by RP-HPLC analysis; type: cell-based
T2 sequence (P09917 whole entry): T1 sequence (whole entry)

[4] = molecular target: T1, Polyunsaturated fatty acid 5-lipoxygenase (Homo sapiens); experiment: Potency index, ratio of Zileuton IC50 to compound IC50 for inhibition of 5-LO in human PMNL cells assessed as reduction in leukotriene formation preincubated for 5 mins followed by thapsigargin stimulation measured after 15 mins by RP-HPLC analysis; type: cell-based
[5] = molecular target: T1, Polyunsaturated fatty acid 5-lipoxygenase (Homo sapiens); experiment: Potency index, ratio of CAPE IC50 to compound IC50 for inhibition of 5-LO in human PMNL cells assessed as reduction in leukotriene formation preincubated for 5 mins followed by thapsigargin stimulation measured after 15 mins by RP-HPLC analysis; type: cell-based
[6] = Antioxidant activity assessed as DPPH radical scavenging activity incubated for 30 mins under dark condition; type: functional
[7] = Cytotoxicity against VHL-positive human RCC10 cells assessed as reduction in cell viability incubated for 4 days by XTT assay; type: functional, cell-based; conditions: 96 h
[8] = test system: RCC4; experiment: Cytotoxicity against VHL-deficient human RCC4 cells assessed as reduction in cell viability incubated for 4 days by XTT assay; type: functional, cell-based; conditions: RCC4, 96 h
[9] = test system: RCC4/VHL; experiment: Cytotoxicity against VHL-positive human RCC4/VHL cells assessed as reduction in cell viability incubated for 4 days by XTT assay; type: functional, cell-based; conditions: 96 h
[10] = Cytotoxicity against VHL-deficient human RCC10 cells assessed as reduction in cell viability incubated for 4 days by XTT assay; type: functional, cell-based; conditions: 96 h
[11] = test system: 786-0; experiment: Cytotoxicity against VHL-deficient human 786-0 cells assessed as reduction in cell viability incubated for 4 days by XTT assay; type: functional, cell-based; conditions: 786-0, 96 h
[12] = test system: 786-0; experiment: Cytotoxicity against VHL-positive human 786-0 cells assessed as reduction in cell viability incubated for 4 days by XTT assay; type: functional, cell-based; conditions: 786-0, 96 h

SMILES	inhibition [1]	inhibition [2]	pIC50 [6]	further results
O=C(/C=C/c1cc(O)ccc1O)OCCCc1ccccc1	Active			
O=C(/C=C/c1ccc(O)cc1O)OCCCc1ccccc1	inactive			
O=C(/C=C/c1cc(O)ccc1O)CCc1ccccc1	Active	> 50%	4.82	pIC50 [3]: 6.28; Ratio IC50 [4]: 4; Ratio IC50 [5]: 1.8; pIC50 [7]: 5.29; pIC50 [8]: 5.00; pIC50 [9]: 4.91; pIC50 [10]: 5.04; pIC50 [11]: 4.69; pIC50 [12]: 4.72
O=C1O[C@H]([C@@H](O)CO)C(O)=C1O [ASCORBIC ACID]			4.86	
CC(c1cc2ccccc2s1)N(O)C(N)=O (configuration not stated) [ZILEUTON]	Active	Active	< 4.00	

Continued, in another order:

inhibition [1]	inhibition [2]	pIC50 [6]	SMILES	further results
Active			O=C(/C=C/c1cccc(O)c1O)OCCCc1ccccc1	
Active	> 50%		O=C(/C=C/c1cccc(O)c1O)OCCc1ccccc1	pIC50 [3]: 6.05
